The target in data set [1] is T1, Leucine-rich repeat serine/threonine-protein kinase 2 (Homo sapiens, UniProt Q5S007). Put plainly: Inhibition of recombinant His6-Tev-LRRK2 (1326 to 2527 residues) (unknown origin) using LRRKtide as substrate preincubated for 30 mins followed by substrate addition and measured after 2 hrs in presence of ATP by TR-FRET assay. A general note: TR-FRET usually uses a lanthanide donor and a delayed reading to cut background.

Data set [2] deals with T1, Leucine-rich repeat serine/threonine-protein kinase 2. In words: Inhibition of recombinant full-length LRRK2 (unknown origin) expressed in SH-SY5Y cells assessed as reduction in Ser935 phosphorylation after 60 mins by Alpha Screen assay. The format is cell-based. Background: In Alpha technology, singlet oxygen from a donor bead excites a nearby acceptor bead.
Data set [3] can be described thus: Lipophilicity, logD of compound at pH 7.4. To be noted: buffer.
Data set [4] in a line: Solubility of the compound in FaSSIF measured after 4 hrs. It counts as physicochemical.
Data set [5] can be described thus: Metabolic stability in human liver microsomes assessed as intrinsic clearance. It counts as ADME, Microsome. In general terms: Microsomes from liver hold many membrane-bound enzymes, among them those of drug oxidation.
Data set [6] can be described thus: Permeability ratio across apical side to basolateral side in MDCK2 cells transfected with Bacmam virus containing human BCRP at 3 uM after 90 mins in presence or absence of GF120918 by transwell assay. To be noted: dog, mdck-ii, 1.5 h. The format is ADME, cell-based, Canis lupus familiaris.
The nature of data set [7]: Artificial membrane permeability by PAMPA method. It counts as ADME. To be noted: read-out: permeability.
The target of data set [8] is T2, Mitogen-activated protein kinase kinase kinase kinase 3 (Homo sapiens) (UniProt Q8IVH8).
T2 sequence (whole entry): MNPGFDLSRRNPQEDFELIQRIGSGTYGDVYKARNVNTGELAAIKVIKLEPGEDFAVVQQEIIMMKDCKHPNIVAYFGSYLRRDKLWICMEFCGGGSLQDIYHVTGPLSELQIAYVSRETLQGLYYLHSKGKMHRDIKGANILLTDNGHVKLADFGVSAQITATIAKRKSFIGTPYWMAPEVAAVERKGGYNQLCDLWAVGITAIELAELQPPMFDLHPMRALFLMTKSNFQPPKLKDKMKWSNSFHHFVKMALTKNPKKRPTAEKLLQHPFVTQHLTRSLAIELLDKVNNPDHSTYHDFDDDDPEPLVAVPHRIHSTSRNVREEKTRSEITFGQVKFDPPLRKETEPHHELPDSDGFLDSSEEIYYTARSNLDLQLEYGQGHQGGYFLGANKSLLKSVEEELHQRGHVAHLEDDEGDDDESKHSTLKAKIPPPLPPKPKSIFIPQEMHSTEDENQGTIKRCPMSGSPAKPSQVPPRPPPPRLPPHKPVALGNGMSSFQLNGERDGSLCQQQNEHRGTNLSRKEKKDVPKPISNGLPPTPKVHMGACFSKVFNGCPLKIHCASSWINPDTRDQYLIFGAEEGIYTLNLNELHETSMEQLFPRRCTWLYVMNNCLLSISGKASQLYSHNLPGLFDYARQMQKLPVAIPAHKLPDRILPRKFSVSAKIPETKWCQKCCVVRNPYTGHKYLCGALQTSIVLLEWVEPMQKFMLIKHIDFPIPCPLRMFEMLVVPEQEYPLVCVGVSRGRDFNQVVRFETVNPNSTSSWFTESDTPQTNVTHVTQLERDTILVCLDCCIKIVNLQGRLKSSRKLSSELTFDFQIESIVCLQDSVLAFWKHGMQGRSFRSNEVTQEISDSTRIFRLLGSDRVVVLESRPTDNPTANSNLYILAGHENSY
Put plainly: Inhibition of MAP4K3 (unknown origin) at 1 uM by radioactivity-based enzymatic assay relative to control.

The target of data set [9] is T3, Interleukin-1 receptor-associated kinase 4 (Homo sapiens) (UniProt Q9NWZ3).
T3 sequence (whole entry): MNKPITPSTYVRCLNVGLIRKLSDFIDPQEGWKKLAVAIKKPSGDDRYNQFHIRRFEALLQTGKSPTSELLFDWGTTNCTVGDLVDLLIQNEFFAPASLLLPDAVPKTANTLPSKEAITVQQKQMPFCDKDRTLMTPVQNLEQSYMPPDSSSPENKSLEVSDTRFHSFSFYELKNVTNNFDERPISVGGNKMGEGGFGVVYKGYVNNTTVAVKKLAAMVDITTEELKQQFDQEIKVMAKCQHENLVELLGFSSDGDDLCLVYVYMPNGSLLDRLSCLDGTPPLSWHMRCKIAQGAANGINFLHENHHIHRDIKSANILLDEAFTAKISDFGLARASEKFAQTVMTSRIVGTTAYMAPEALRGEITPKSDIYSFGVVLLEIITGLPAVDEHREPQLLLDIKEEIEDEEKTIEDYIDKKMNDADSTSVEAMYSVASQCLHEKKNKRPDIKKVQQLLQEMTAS
In words: Inhibition of IRAK4 (unknown origin) at 1 uM by radioactivity-based enzymatic assay relative to control.

Data set [10] deals with Tyrosine-protein kinase JAK2 (Homo sapiens) (UniProt O60674). Put plainly: Inhibition of JAK2 (unknown origin) at 1 uM by radioactivity-based enzymatic assay relative to control.
Data set [11] has as its target Tyrosine-protein kinase SYK (Homo sapiens) (UniProt P43405). In words: Inhibition of SYK (unknown origin) at 1 uM by radioactivity-based enzymatic assay relative to control.
For data set [12], the target named is Mitogen-activated protein kinase kinase kinase 9 (Homo sapiens) (UniProt P80192). In words: Inhibition of MLK1 (unknown origin) at 1 uM by radioactivity-based enzymatic assay relative to control.
Data set [13] in a line: Dose normalized AUC (0 to t) in Han-Wistar rat blood at 2 mg/kg, po measured up to 7 hrs by UPLC-MS/MS analysis. The format is ADME, organism-based. The note with it: in vivo.
The nature of data set [14]: Ratio of total drug concentration in brain to blood in Han-Wistar rat at 2 mg/kg, po. It counts as ADME, organism-based.
The nature of data set [15]: Unbound fraction in Han-Wistar rat brain at 2 mg/kg, po. It counts as ADME, organism-based.
Data set [16] in a line: Dose normalized AUC (0 to t) in Han-Wistar rat brain at 2 mg/kg, po measured up to 7 hrs by UPLC-MS/MS analysis. The format is ADME, organism-based. To be noted: in vivo.

SMILES strings stand for the structures. Converted amounts (≈) assume the structure as drawn. Where only a bound is given, the exact number is not on record here.

Experimental findings from ChEMBL document CHEMBL4715821, “Discovery of 4-ethoxy-7H-pyrrolo[2,3-d]pyrimidin-2-amines as potent, selective and orally bioavailable LRRK2 inhibitors” (Bioorg Med Chem Lett, 2018) are described below.

T1 sequence (Q5S007 whole entry, the tested form may be a part): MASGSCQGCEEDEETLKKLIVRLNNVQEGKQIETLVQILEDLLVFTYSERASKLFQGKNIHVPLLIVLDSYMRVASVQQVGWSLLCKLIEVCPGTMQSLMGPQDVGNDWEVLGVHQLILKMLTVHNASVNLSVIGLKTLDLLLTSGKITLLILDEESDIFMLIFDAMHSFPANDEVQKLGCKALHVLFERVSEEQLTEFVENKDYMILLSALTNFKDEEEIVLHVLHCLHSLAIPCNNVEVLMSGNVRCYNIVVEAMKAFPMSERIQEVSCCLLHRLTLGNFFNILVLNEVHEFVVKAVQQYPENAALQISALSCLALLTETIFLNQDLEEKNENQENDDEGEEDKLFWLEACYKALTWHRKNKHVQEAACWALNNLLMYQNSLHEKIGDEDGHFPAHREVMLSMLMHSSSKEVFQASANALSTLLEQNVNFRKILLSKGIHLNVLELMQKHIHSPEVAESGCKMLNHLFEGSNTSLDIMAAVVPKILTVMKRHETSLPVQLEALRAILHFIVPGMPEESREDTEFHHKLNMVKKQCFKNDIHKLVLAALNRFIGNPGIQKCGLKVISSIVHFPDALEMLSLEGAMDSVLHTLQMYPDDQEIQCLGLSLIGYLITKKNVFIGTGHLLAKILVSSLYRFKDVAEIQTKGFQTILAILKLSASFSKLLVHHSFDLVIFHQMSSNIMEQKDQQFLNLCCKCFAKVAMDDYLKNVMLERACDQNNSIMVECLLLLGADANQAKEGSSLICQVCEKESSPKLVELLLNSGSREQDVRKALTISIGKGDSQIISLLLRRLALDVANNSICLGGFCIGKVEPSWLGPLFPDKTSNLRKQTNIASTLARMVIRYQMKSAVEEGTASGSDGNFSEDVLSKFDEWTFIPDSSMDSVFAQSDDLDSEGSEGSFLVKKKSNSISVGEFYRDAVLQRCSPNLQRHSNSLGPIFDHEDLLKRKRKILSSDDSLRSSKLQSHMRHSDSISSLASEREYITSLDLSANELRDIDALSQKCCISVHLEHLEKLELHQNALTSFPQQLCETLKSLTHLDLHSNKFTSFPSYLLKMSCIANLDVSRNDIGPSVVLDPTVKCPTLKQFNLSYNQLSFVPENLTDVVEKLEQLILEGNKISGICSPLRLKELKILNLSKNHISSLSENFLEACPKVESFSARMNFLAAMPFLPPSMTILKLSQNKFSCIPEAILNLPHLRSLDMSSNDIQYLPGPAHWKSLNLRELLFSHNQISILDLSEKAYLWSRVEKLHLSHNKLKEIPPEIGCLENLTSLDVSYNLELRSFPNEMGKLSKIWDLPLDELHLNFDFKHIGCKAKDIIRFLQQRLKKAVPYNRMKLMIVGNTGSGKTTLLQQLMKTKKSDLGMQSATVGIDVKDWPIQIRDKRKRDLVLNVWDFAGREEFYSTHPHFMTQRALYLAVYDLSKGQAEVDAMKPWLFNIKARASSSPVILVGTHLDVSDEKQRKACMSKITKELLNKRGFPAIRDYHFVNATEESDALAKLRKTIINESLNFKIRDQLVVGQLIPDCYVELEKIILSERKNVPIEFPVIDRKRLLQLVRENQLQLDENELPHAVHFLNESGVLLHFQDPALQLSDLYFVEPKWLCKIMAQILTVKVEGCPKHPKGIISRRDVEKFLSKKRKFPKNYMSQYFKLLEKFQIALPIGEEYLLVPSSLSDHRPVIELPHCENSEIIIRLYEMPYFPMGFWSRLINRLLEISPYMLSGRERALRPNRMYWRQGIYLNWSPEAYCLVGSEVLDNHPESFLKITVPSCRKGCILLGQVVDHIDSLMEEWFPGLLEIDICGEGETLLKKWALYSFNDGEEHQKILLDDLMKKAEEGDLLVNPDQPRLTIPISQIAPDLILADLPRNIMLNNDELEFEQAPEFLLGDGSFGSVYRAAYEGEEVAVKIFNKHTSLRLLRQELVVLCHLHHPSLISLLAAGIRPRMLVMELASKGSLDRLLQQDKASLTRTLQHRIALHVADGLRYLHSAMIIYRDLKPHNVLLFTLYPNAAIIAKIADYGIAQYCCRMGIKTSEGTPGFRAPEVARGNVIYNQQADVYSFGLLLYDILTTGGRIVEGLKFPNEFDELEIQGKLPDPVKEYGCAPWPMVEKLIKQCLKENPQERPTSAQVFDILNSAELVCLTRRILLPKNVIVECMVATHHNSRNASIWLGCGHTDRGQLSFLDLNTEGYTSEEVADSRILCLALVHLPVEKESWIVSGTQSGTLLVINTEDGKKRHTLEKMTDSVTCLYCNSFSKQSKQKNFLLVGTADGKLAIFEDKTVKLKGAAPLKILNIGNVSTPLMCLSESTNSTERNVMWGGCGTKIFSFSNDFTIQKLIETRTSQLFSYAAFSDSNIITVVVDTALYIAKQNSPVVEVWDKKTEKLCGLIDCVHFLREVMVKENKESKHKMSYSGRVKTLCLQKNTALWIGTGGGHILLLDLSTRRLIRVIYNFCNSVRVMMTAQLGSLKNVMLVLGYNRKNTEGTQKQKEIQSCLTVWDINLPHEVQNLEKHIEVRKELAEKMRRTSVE
Sequence of Tyrosine-protein kinase JAK2 (Homo sapiens) (O60674 whole entry): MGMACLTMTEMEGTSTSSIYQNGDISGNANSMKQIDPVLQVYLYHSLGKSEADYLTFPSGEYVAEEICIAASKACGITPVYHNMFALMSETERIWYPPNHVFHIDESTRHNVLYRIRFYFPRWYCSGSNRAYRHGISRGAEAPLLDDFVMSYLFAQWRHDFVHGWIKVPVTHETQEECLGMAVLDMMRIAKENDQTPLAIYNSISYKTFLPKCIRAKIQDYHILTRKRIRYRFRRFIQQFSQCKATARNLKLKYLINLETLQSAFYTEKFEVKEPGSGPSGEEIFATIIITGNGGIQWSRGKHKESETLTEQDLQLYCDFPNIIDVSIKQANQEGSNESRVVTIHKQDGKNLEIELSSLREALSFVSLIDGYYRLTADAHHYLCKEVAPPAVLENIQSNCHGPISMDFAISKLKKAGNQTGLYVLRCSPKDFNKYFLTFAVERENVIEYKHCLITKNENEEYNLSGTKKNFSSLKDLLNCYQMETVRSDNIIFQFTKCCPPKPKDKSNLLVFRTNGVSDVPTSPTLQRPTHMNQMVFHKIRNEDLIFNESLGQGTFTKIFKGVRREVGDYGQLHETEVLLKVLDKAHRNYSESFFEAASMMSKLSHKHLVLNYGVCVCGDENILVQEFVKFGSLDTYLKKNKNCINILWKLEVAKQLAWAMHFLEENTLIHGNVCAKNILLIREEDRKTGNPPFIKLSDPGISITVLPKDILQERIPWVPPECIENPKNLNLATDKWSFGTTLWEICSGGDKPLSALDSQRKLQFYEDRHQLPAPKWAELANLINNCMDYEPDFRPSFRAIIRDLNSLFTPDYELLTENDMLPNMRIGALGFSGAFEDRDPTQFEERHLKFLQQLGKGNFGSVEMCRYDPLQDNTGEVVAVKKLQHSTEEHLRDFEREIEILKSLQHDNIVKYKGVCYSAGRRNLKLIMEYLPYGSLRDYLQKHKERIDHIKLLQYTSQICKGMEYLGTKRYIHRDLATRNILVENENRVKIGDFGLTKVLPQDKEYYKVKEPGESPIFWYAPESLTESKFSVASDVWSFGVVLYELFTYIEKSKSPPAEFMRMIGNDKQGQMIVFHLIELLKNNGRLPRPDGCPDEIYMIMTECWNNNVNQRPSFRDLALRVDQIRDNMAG
Sequence of Mitogen-activated protein kinase kinase kinase 9 (Homo sapiens) (P80192 whole entry, looked up): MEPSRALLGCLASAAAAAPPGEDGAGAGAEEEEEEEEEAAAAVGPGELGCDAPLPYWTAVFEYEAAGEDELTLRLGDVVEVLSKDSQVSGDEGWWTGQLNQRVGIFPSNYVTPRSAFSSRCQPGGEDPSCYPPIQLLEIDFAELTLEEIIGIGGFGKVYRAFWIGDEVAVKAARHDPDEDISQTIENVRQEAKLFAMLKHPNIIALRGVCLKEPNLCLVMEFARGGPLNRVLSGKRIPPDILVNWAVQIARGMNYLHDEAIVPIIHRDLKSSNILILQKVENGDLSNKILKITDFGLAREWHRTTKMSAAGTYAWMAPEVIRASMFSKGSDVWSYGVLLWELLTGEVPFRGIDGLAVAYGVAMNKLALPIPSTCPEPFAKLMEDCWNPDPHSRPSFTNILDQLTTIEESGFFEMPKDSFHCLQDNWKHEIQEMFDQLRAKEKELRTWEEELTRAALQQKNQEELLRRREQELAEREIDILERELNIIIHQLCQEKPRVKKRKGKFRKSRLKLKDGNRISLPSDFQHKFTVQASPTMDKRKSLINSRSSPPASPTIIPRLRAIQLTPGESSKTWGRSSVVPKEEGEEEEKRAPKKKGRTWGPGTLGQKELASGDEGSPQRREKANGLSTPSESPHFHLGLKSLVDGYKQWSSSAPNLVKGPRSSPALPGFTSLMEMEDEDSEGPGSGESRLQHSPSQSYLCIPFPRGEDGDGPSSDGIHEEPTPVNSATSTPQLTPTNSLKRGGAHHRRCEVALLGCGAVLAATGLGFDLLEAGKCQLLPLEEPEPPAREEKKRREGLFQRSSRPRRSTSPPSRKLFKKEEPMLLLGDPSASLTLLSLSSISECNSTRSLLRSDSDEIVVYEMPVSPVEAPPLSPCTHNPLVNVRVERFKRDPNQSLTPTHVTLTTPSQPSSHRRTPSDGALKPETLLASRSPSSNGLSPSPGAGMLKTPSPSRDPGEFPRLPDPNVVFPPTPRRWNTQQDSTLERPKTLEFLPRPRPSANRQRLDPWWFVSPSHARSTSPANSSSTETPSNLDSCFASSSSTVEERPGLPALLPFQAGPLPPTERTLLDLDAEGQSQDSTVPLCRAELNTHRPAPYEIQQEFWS

Consider `CCOc1nc(Nc2ccc(C(=O)N3CCN(C)CC3)cc2OC)nc2[nH]ccc12`, for which the IC50 in data set [1] was 15.8 nM.
On to `CCOc1nc(Nc2ccc(C(=O)N3CCN(C)CC3)cc2OC(F)F)nc2[nH]ccc12`, for which the IC50 was under 0.158 nM in [1] and 158 nM in data set [2].
In the case of `CCOc1nc(Nc2ccc(C(=O)N3CC4(COC4)C3)cc2OC)nc2[nH]ccc12`, the values for the IC50 in data set [1] and in data set [2] were 63.1 nM and 158 nM, respectively. For the same compound, the logD in [3] came out at 4.3. The compound also returned a solubility at 4 h in [4] of 6.2 µg/mL (≈ 15.1 µM). Also, in [5], the CLH worked out at 1.1 mL/min/g.
For the compound `CCOc1nc(Nc2ccc(C(=O)N3CCOCC3)cc2OC(C)C)nc2[nH]ccc12`, the results for the IC50 in [1] and in data set [2] were 12.6 nM and 631 nM, respectively.
In the same order, the values of `CCOc1nc(Nc2ccc(C(=O)N3CCN(C)CC3)cc2N(C)C)nc2[nH]ccc12` are 200 nM and 3160 nM.
With `CCOc1nc(Nc2ccc(C(=O)N3CCC4(CC3)CN(C)C4)cc2OC)nc2[nH]ccc12`, in data set [6], the Ratio is listed as 5. The figures for the IC50 in [1] and in data set [2] were 6.31 nM and 63.1 nM, respectively. In addition, the logD in data set [3] is 3. Besides, the concentration in solution in data set [4] (solubility at 4 h) came to 621 µg/mL (≈ 1380 µM). Besides, in [5], the CLH is under 0.777 mL/min/g.
Consider `NC(=O)c1ccc(Nc2nc(NCC(F)(F)F)c3cc[nH]c3n2)cc1`, for which, in data set [7], the Papp is 3.6 ×10⁻⁶ cm/s. Also, the inhibition in data set [8], in [9], in data set [10], in [11] and in [12] was over 50% in each case. In addition, the figures for the IC50 in [1] and in data set [2] were 12.6 nM and 50.1 nM, respectively. In addition, the pH-dependent lipophilicity (logD) in data set [3] was 2.8. The same compound showed a solubility at 4 h in data set [4] of 8.6 µg/mL (≈ 24.6 µM).
As for `CCOc1nc(Nc2ccc(C(=O)N3CCOC[C@H]3C)cc2OC)nc2[nH]ccc12`, the Ratio in [6] is recorded as 2.2. Besides, the IC50 is 15.8 nM in data set [1] and 79.4 nM in data set [2]. Also, the logD in [3] stood at 5.1. The amount in solution in data set [4] (solubility at 4 h) came to 78.8 µg/mL (≈ 192 µM). In addition, the CLH in data set [5] amounted to 0.8 mL/min/g.
Turning to `CCOc1nc(Nc2ccc(C(=O)N3CCN(C)CC3)cc2F)nc2[nH]ccc12`, the IC50 is 12.6 nM in data set [1] and 158 nM in [2].
`CCOc1nc(Nc2ccc(C(=O)N3CCN4CCC[C@H]4C3)cc2OC)nc2[nH]ccc12` gave a logD in data set [3] of 4.9. In addition, in [4], the concentration in solution (solubility at 4 h) came to 309 µg/mL (≈ 709 µM). Further, in data set [5], the CLH amounted to 3.2 mL/min/g.
For the compound `CCOc1nc(Nc2ccc(C(=O)N3CCN(C)CC3)cc2)nc2[nH]ccc12`, the IC50 in data set [1] was 12.6 nM; in data set [2] it was 79.4 nM.
Take `CCOc1nc(Nc2ccc(C(=O)N3CCN(C)CC3)cc2Cl)nc2[nH]ccc12`: the IC50 in data set [1] is 12.6 nM; in [2], 251 nM.
Take `CCOc1nc(Nc2ccc(C(=O)NCC(C)(C)O)cc2OC)nc2[nH]ccc12`: in [6], the Ratio is reported as 3.8. Moreover, the results for the IC50 in data set [1] and in [2] were 12.6 nM and 126 nM, respectively. In addition, the logD in data set [3] was found to be 4.1. The compound also gave a solubility at 4 h in data set [4] of 25.5 µg/mL (≈ 63.8 µM). In addition, in [5], the CLH came to 0.8 mL/min/g.
Turning to `CCOc1cc(C(=O)N2CCN(C)CC2)ccc1Nc1nc(OCC)c2cc[nH]c2n1`, the figures for the IC50 in data set [1] and in [2] were 10 nM and 126 nM, respectively.
For `CCOc1nc(Nc2ccc(C(=O)N3CCN4CCC[C@@H]4C3)cc2OC)nc2[nH]ccc12`, the figures for the AUCt/dose in [13] and in data set [16] were 487 ng·h/g/mg/kg and 246 ng·h/g/mg/kg, respectively. Also, the logD in data set [3] was found to be 4.9. The compound further showed a solubility at 4 h in [4] of 300 µg/mL (≈ 687 µM). In addition, the CLH in data set [5] is 2.5 mL/min/g. For the same compound, in data set [14], the Kp is 0.51. The same compound returned a fraction unbound in data set [15] of under 0.005.
On to `CCOc1nc(Nc2ccc(C(=O)N3CCOCC3)cc2)nc2[nH]ccc12`, for which, in data set [7], the Papp stood at 51 ×10⁻⁶ cm/s. Also, the inhibition in data set [8], in data set [9], in data set [10], in data set [11] and in data set [12] was over 50% each time. The IC50 in data set [1] was 7.94 nM; in data set [2], 63.1 nM. In [3], this compound gave a logD of 3.9. In [4], the concentration in solution (solubility at 4 h) came to 1.7 µg/mL (≈ 4.63 µM).
Turning to `CCOc1nc(Nc2ccc(C(=O)N3C[C@@H](C)O[C@@H](C)C3)cc2OC)nc2[nH]ccc12`, the IC50 in data set [1] was 63.1 nM; in data set [2], 200 nM. This compound also displayed a logD in [3] of 5.7. In [4], this compound gave a solubility at 4 h of 4.4 µg/mL (≈ 10.3 µM). Further, the CLH in data set [5] was 1.5 mL/min/g.
Consider `CCOc1nc(Nc2ccc(C(=O)N3CCC(F)CC3)cc2OC)nc2[nH]ccc12`, for which the IC50 was 6.31 nM in data set [1] and 316 nM in [2]. In addition, in [4], the concentration in solution (solubility at 4 h) was 39.7 µg/mL (≈ 96 µM). In data set [5], the CLH was found to be 1.1 mL/min/g.
As for `CCOc1nc(Nc2ccc(C(=O)N3CCOC[C@@H]3C)cc2OC)nc2[nH]ccc12`, the Ratio in data set [6] is reported as 1.8. Also, the IC50 is 7.94 nM in data set [1] and 100 nM in [2]. This compound also showed a logD in [3] of 5. Moreover, the solubility at 4 h in data set [4] stood at 154 µg/mL (≈ 374 µM). The CLH in data set [5] stood at 1.4 mL/min/g.

A word on the IC50: it is the midpoint of a concentration-inhibition curve. The term logD denotes the decadic logarithm of the distribution of all forms, ionised or not, between an organic phase and buffer at a given pH. By solubility is commonly meant how much of the substance goes into solution per volume. As usually defined, the inhibition is the percentage by which the read-out fell short of the control. A word on the Kp: it is the ratio of the level in a tissue or fluid to that in plasma or blood. As usually defined, the fraction unbound is the share of the substance not bound to proteins or other matrix.
